The results in this text go back to ChEMBL document CHEMBL5523728, “Fragment-Based Discovery of a Series of Allosteric-Binding Site Modulators of β-Glucocerebrosidase” (J Med Chem, 2024).

SMILES strings stand for the structures. Calls of active or inactive are those of the source. The calls are words filed in the database; no cut-off is given here.

One experiment concerns the target T1, Lysosomal acid glucosylceramidase (Homo sapiens, UniProt P04062).
T1 sequence (P04062 whole entry): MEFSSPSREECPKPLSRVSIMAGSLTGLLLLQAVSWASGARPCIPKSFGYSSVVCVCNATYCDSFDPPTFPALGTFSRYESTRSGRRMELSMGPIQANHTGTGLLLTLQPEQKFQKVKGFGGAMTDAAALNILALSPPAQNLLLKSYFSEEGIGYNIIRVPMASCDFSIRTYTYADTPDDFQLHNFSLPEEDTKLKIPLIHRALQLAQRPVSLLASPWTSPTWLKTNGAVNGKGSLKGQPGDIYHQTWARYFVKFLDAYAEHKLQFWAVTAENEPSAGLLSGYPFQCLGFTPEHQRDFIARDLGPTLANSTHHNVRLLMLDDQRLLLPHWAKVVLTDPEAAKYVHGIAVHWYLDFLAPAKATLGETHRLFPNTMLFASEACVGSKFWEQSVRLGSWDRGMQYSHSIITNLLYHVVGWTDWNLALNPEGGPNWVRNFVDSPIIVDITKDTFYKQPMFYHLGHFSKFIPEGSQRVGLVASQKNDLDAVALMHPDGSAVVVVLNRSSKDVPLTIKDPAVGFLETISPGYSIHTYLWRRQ
Nature of the experiment: Positive allosteric modulation of GCase in human Fibroblast cells using GBA1-FQ2 as substrate preincubated for 24 hrs followed by substrate addition and measured after 3 hrs by Hoechst 33342 staining based imaging analysis. In kind it is cell-based.
Settings: not given
By EC50 is commonly meant the midpoint of the concentration-response curve. The low end stands for an effect from little substance, the high end for a need for much substance. Turning to `CCCOc1cc(F)cc(S(=O)(=O)N(C)C[C@@H](N)c2cccc(N(C)C)c2)c1`, the midpoint of the response, the EC50, lay at 8.9 µM.

The compound `C=C(C)c1cccc([C@@H](N)CN(C)S(=O)(=O)c2cc(F)cc(F)c2)c1` returned an EC50 of 9 µM.

The target of a further experiment is T2, Lysosomal acid glucosylceramidase (Homo sapiens) (UniProt P04062).
T2 sequence (whole entry): T1 sequence (P04062 whole entry)
Test: not given
As to conditions: Fibroblast, dose 0.5 mM, time 27.0 hrs.
As to `O[C@H]1[C@H](O)[C@@H](O)[C@@H]2O[C@@H]2[C@@H]1O`, the inhibition entry is “Active”.

Another experiment deals with T1, Lysosomal acid glucosylceramidase. Nature of the experiment: biochemical.
Settings: not given
What is called Kd is the free concentration of one partner at which half of the binding sites on the other are occupied at equilibrium, for simple one-to-one binding. In turn, `Cc1ccc(S(=O)(=O)NCC(C)N)cc1` (racemic) yielded a Kd of 100 µM.

In turn, `CN(CC(F)F)c1cccc([C@@H](N)CN(C)S(=O)(=O)c2cc(F)cc(F)c2)c1` gave a Kd of 0.22 µM.

As for `c1ccc(CC2CCNCC2)cc1`, the affinity, expressed as Kd, was 19 µM.

For the compound `N[C@H](CNS(=O)(=O)c1cccc(F)c1)c1ccccc1`, the Kd was 3 µM.

With `N[C@H](CNS(=O)(=O)c1ccccc1)c1ccccc1`, binding was characterised by a dissociation constant (Kd) of 7 µM.

On to `N[C@H](CNS(=O)(=O)c1cc(F)cc(F)c1)c1ccccc1`, for which the Kd was determined as 1 µM.

In turn, `O=S(=O)(NCC1CC1)c1ccccc1` registered a dissociation constant Kd of 410 µM.

Compound `CN(C[C@H](N)c1cccc(Cl)c1)S(=O)(=O)c1cc(F)cc(F)c1` registered a Kd of 0.25 µM.

`CN(C[C@@H](N)c1cccc(Br)c1)S(=O)(=O)c1cc(F)cc(F)c1` gave a Kd of 0.18 µM.

Regarding `CCCOc1cc(F)cc(S(=O)(=O)N(C)C[C@@H](N)c2cccc(N(C)C)c2)c1`, binding was characterised by a dissociation constant (Kd) of 0.018 µM.

As to `NCC(O)CNS(=O)(=O)c1ccccc1F` (racemic), binding was characterised by a dissociation constant (Kd) of 180 µM. This Kd is about 10000-fold higher than that of the compound before.

In turn, `C=C(C)c1cccc([C@@H](N)CN(C)S(=O)(=O)c2cc(F)cc(F)c2)c1` displayed a Kd of 0.05 µM.
